Laboratory results from article PMC3259201 (European Journal of Medicinal Chemistry, 2011).
“Also recorded” adds a separate entry of the source.

System: HIV-1 NL4-3 strain
Experiment: HIV-1 infectivity assay, single cycle infection of TZM-bl cells
Assay type: cell-based
Conditions: wild-type HIV-1 NL4-3 strain

SMILES | anti-HIV activity (in words)
COc1cc2c(c3oc4c(C)cccc4c(=O)c13)[C@@H](OC(=O)C13CCC(C)(C(=O)O1)C3(C)C)[C@@H](OC(=O)C13CCC(C)(C(=O)O1)C3(C)C)C(C)(C)O2 (stereo partly drawn) [Compound 10, 1R,2R-(-)-Dicamphanoyl-3,3,11-trimethyl-6-methoxy-1,2-dihydropyrano[2,3-c]xanthen-7(1H)-one] | almost inactive
COc1cccc2c(=O)c3c(OC)cc4c(c3oc12)[C@@H](OC(=O)[C@@]12CCC(C)(C(=O)O1)C2(C)C)[C@@H](OC(=O)[C@@]12CCC(C)(C(=O)O1)C2(C)C)C(C)(C)O4 [Compound 14, 1R,2R-(-)-Dicamphanoyl-3,3-dimethyl-6,11-dimethoxy-1,2-dihydropyrano[2,3-c]xanthen-7(1H)-one] | no detectable anti-HIV activity or selectivity
CC1(C)Oc2cc(O)c3c(=O)c4ccccc4oc3c2[C@@H](OC(=O)[C@@]23CCC(C)(C(=O)O2)C3(C)C)[C@H]1OC(=O)[C@@]12CCC(C)(C(=O)O1)C2(C)C [Compound 9, 1R,2R-(-)-Dicamphanoyl-3,3-dimethyl-6-hydroxy-1,2-dihydropyrano[2,3-c]xanthen-7(1H)-one] | did not show notable activity or selectivity; also recorded: did not exhibit anti-HIV activity
